“Also recorded” adds a separate entry of the source.
T1: importin α3 (endogenous, mouse DRG sensory neurons) (mouse, UniProt O35343 2-521)
T1 construct: whole, on cells; Endogenous protein detected in fixed neurons with a rabbit polyclonal anti-importin α3 antibody in the proximity ligation assay; The protein is intracellular, not on the cell surface; also called Impα3; Karyopherin Subunit Alpha 4
T1 sequence (looked up): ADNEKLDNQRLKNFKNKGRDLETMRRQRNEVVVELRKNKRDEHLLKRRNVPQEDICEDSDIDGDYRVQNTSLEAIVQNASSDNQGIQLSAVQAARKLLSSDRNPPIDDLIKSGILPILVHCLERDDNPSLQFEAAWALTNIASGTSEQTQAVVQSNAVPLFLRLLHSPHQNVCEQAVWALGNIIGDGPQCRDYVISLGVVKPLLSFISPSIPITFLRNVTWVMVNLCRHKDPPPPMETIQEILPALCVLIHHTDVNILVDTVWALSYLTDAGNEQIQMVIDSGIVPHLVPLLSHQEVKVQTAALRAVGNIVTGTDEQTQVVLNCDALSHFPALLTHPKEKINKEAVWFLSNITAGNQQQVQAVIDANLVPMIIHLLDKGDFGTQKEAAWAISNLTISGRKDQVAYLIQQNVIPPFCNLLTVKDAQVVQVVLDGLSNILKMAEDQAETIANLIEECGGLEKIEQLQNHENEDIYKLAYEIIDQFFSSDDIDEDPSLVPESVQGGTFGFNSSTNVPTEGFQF

B1: shFOS1: AAV9 shRNA targeting c-Fos, SEQ ID NO: 17 (nucleic acid)
DNA: GATCCGGCGGAGACAGATCAACTTGAAGAAGCTTGTTCAAGTTGATCTGTCTCCGCCTTTTTTT
B2: c-Fos (other, mouse, UniProt P01101 1-380, looked up)
chain: MMFSGFNADYEASSSRCSSASPAGDSLSYYHSPADSFSSMGSPVNTQDFCADLSVSSANFIPTVTAISTSPDLQWLVQPTLVSSVAPSQTRAPHPYGLPTQSAGAYARAGMVKTVSGGRAQSIGRRGKVEQLSPEEEEKRRIRRERNKMAAAKCRNRRRELTDTLQAETDQLEDEKSALQTEIANLLKEKEKLEFILAAHRPACKIPDDLGFPEEMSVASLDLTGGLPEASTPESEEAFTLPLLNDPEPKPSLEPVKSISNVELKAEPFDDFLFPASSRPSGSETSRSVPDVDLSGSFYAADWEPLHSNSLGMGPMVTELEPLCTPVVTCTPGCTTYTSSFVFTYPEADSFPSCAAAHRKGSSSNEPSSDSLSSPTLLAL
notes: whole, on cells; Endogenous protein in both assays; The protein is intracellular, not on the cell surface

Assays:
mice = assay: Response to noxious heat (metal probe heated to 58° C. applied to paw, paw withdrawal latency); format: in vivo, mouse; conditions: for responsiveness to noxious heat: WT mice, 1 hour following i.p. injection, sulmazole 0.5 mg/kg, sulfamethizole 1.25 mg/kg (FIG. 8A)
Protocol: Pain Models—Responses to noxious heat were assessed by applying a metal probe heated to 58° C. to a forelimb paw, while holding the animal. Paw withdrawal latency was timed, typically ranging between 2-4 seconds in wild-type animals. If the paw was not withdrawn within 20 seconds the assay was terminated. The test was repeated three times for each animal, with at least 20 minute intervals between repeats. Heat sensitivity was also assessed using the hot plate test [L. Urien et al., Sci Rep 7, 43493 (2017)]. To this end, mice were placed individually in a 20 cm high Plexiglas box on a metal surface set at 52, 55 or 58° C., and the latency to initiate a nociceptive response (licking, hind paws shaking, jumping) was monitored by videotape. Mice were removed from the plate immediately after a nociceptive response.

SNI mice [1] = assay: Spared nerve injury (SNI) model of neuropathic pain, paw withdrawal threshold (PWT) by Von Frey test; format: in vivo, mouse; conditions: for paw withdrawal threshold (PWT) by the Von Frey test: SNI, 60 days following establishing the model, two i.p. injections with 1 week interval, sulmazole 1.25 mg/kg, sulfamethizole 3.12 mg/kg, vs vehicle (FIG. 8B); for relief in the SNI model of neuropathic pain: intraperitoneal injection at both early and late stages of chronic pain (FIGS. 8B, 21A-B, 22A-B); for mechanosensitivity, paw withdrawal threshold by Von Frey test, dose dependence: one hour following i.p. treatment, one week following establishing SNI (FIGS. 21A-B); for mechanosensitivity, Von Frey tests, time dependence: one week after SNI, 1, 5 and 24 hours following i.p. injection (FIGS. 22A-B)
Protocol: (§1) Chronic neuropathic pain was assessed using the spared nerve injury (SNI) model^13. Mice were anaesthetized with Ketamine/Xylazine (10 mg/kg body weight, intraperitoneal). The skin on the lateral surface of the thigh was incised and a section was made directly through the biceps femoris muscle in order to expose the sciatic nerve and its three terminal branches: the sural, common peroneal and tibial nerves. The SNI procedure comprised an axotomy and ligation of the tibial and common peroneal nerves leaving the sural nerve intact. The peroneal and the tibial nerves were tight-ligated and sectioned distal to the ligation. […] Following, mice were evaluated over a period of three months.
(§2) Von Frey tests of sensitivity to mechanical stimuli were conducted as previously described [Marvaldi et al. Dev Neurobiol 75, 217 (2015)]. Briefly, mice were placed in acrylic chambers suspended above a wire mesh grid and allowed to habituate to the testing apparatus for one hour prior to experiments. When the mouse was calm, the von Frey filaments were pressed against the plantar surface of the paw until the filament buckled and held for a maximum of 3 seconds. A positive response was noted if the paw was sharply withdrawn on application of the filament. Testing began with filament target force 13.7 milliNewtons and progressed according to an up-down method. 2 gram Von Frey filaments were used to assess sensitivity to noxious mechanical stimulation, scoring mice responses as follows: 0, no response; 1, visible signs of discomfort without leg withdrawal; 2, withdrawal of the leg.

[2] = tested on: c-Fos nuclear localization in DRG neurons; assay: c-Fos nuclear localization in cultured DRG neurons (immunostaining, quantified); format: cell-based, mouse; conditions: sulmazole 0.5 mg/kg; for c-Fos nuclear accumulation: importin α3 null DRG neurons cultured following SNI, sulfamethizole 1.25 mg/kg (FIG. 9); for c-Fos nuclear localization: wild type DRG neurons cultured following SNI, sulfamethizole 1.25 mg/kg, vs vehicle (FIGS. 8C-D)
Protocol: Histology—Lumbar sections of the spinal cord including Dorsal root ganglia (DRGs) were pre-fixed for 6 minutes before dissection of spinal cord and associated DRGs. Lumbar DRG (L4, unless otherwise indicated) and/or spinal cord were then fixed for six hours in 4% PFA in PBS, washed in PBS and equilibrated in 20% w/v sucrose in PBS prior to serial cryo-sectioning at a thickness of 10-20 μm. Following, one set for each DRG was processed for immunostaining. Briefly, sections were rehydrated in PBS, blocked and permeabilized with 15% Donkey Serum, 5-10% BSA, 0.3% Triton X-100 in PBS for 1-3 hours and incubated overnight at 4° C. with Mouse anti-βIII tubulin (TuJ1, abcam, ab18207), Rabbit anti-cFos (Millipore, Ab5, 4-17), Mouse anti-cFOS (Millipore Ab5 4-17, IF 1:500), Mouse anti-Jun (BD transduction Laboratories, IF 1:1000), Rabbit TRPV1 (Alomone ACC-030, 1:500), Rabbit anti-GFP (abcam, ab6556, IF & WB1:500), Goat anti-CGRP (AbD SEROTEC, 1720-9007), MBP (Abcam ab7349, IF 1:500) or Rabbit anti-importin α3 (1:2000) antibodies. On the following day, sections were washed three times in PBS prior to incubation for 2 hours with different combinations of donkey anti-chicken/rabbit/mouse secondary antibodies (Alexa Fluor 647, 594, 488; Jackson Immunoresearch, 1:1000). Following, coverslips or slides were washed and mounted with Flouromount-G™.
Image processing—Images were acquired on a confocal laser-scanning microscope (Olympus FV1000, 60× oil-immersion objective Olympus UPLSAPO-NA 1.35) using Fluoview (FV10-ASW 4.1) software. DRG sections were scanned using camera settings identical for all genotypes in a given experiment. Images were imported into the Fiji version (www(dot)//fiji(dot)sc) of ImageJ for threshold subtraction and subsequent analyses as detailed below.
Fluorescence Intensity Analysis: Line scan analysis of fluorescence intensity was carried out on high-resolution confocal z-stack from DRG sections to determine fluorescence intensity of c-FOS and importin α3 over cell regions of interest in-vivo. Briefly, the measurement (in pixels) was effected using the ImageJ drawing tool to draw a line across a neuronal segment covering both cytoplasm and nucleus. All collected traces were then averaged for each experimental group. For comparison of nuclear and cytoplasmic staining intensity 8-bit images of either DRG sections or DRG cultured neurons were processed using the Fiji software. The integrated density was calculated as the sum of the values of the pixels in both cytoplasmic and nuclear regions of interest determined on the basis of TuJ-1, CGRP, TRPV1 or DAPI staining, respectively.
Neuronal cultures—Adult mouse DRG neurons were cultured as previously described [Perry et al. Neuron 75, 294 (2012)], with plating on poly-L-lysine and laminin coated plates or glass cover slips for 24 hours. Where required, L3-L5 DRG neurons from the uninjured side served as controls for cultures from SNI mice.

SNI mice [3] = assay: Noxious mechanosensitivity of SNI mice, Von Frey filaments of 2 grams force, score 0-2; format: in vivo, mouse; conditions: score 0 to 2 (FIG. 22C)
Protocol: as §1
as §2, with “2 gram Von Frey filaments were used to assess sensitivity to noxious mechanical stimulation, scoring mice responses as follows: 0, no response; 1, visible signs of discomfort without leg withdrawal; 2, withdrawal of the leg.” left out

[4] = target: T1, importin α3 (endogenous, mouse DRG …); assay: proximity ligation assay of endogenous proteins in cultured DRG sensory neurons
Protocol: Proximity Ligation Assay (PLA) in DRG cultures—The Proximity Ligation Assay (PLA) is used to detect spatial proximity within ˜40 nm of two proteins of interest [O. Söderberg et al., Nature Methods 3, 995-1000 (2006)]. DRG neurons were cultured for 24 hours and fixed for 20 minutes in 4% PFA before blocking and permeabilization with 5% Donkey Serum, 1% BSA, 0. 1% Triton X-100 in PBS for 1 hour. They were then incubated with anti-c-Fos (mouse monocolonal 1:1000, Abcam ab208942) and anti-importin α3 (rabbit polyclonal, 1:2000, Michael Bader lab′, MDC Berlin) overnight at 4° C. PLA was performed using Duolink (Sigma: PLA probe anti-mouse minus DU092004, anti-rabbit plus DU092002 with detection using Far-Red DU092013), according to the manufacturer's instructions. Identification of PLA signal within neurons was effected by subsequent immunostaining with goat anti-CGRP (AbD SEROTEC 1720-9007, IF 1:1000) for 60 minutes at room temperature, followed by three washes and an additional 60 minutes incubation with donkey anti-goat Alexa Fluor 488 (Jackson Immunoresearch, 1:1000). Cells were then washed, mounted with Flouromount-G (ThermoFisher Scientific, cat. #00-4958-02) and imaged by confocal microscopy (Olympus FV1000, 60× oil-immersion objective Olympus UPLSAPO-NA 1.35). PLA signals were quantified by counting puncta in ImageJ. […]

| Molecule | responsiveness to noxious heat (mice) | c-Fos nuclear accumulation [2] | c-Fos nuclear localization [2] | paw withdrawal threshold (PWT) by the Von Frey test (SNI mice [1]) | relief in the SNI model of neuropathic pain (SNI mice [1]) | mechanosensitivity, paw withdrawal threshold by Von Frey test, dose dependence (SNI mice [1]) | mechanosensitivity, Von Frey tests, time dependence (SNI mice [1]) | response of SNI injured animals to a noxious mechanical stimulus (SNI mice [3]) | other results |
| --- | --- | --- | --- | --- | --- | --- | --- | --- | --- |
| O=C(O)CCc1cc(C(=O)c2ccc(OC3CCCC3)cc2O)ccc1OCc1ccc2c(=O)[nH]oc2c1 [T-5224] |  |  |  |  |  |  |  |  | response to noxious heat (mice; WT (+/+) mice, 20 mg/kg, i.p. (FIGS. 6J-K)): reduced the response to noxious heat; response to noxious heat (mice; importin α3 null (−/−) mice, 20 mg/kg, i.p. (FIGS. 6J-K)): no additional effect beyond the already existing attenuation; paw withdrawal threshold (PWT) in response to noxious heat (mice; wild-type mice, i.p. at the indicated doses, over eight days post-treatment (FIGS. 7A-B)): reduced paw withdrawal in response to noxious heat; also recorded: most marked effect was observed one day following injection of a dose of 10 mg/kg; paw withdrawal in Von Frey tests (SNI mice [1]; wild type animals one week following induction of SNI, 10 mg/kg (FIG. 18)): did ameliorate the paw withdrawal latency |
| NCC1(CC(=O)O)CCCCC1 [gabapentin] |  |  |  |  |  |  |  |  | paw withdrawal threshold (PWT) in Von Frey tests (SNI mice [1]; SNI mice, 100 mg/kg intraperitoneal two months following establishment of the model, again one week later (FIG. 2D)): significant amelioration of the phenotype |
| Cc1nnc(NS(=O)(=O)c2ccc(N)cc2)s1 [sulfamethizole, 4-Amino-N-(5-methyl-1,3,4-thiadiazol-2-yl)benzenesulfonamide] | showed efficacy in the assay | neither drug had any further effect | significantly reduced c-Fos nuclear accumulation | significant effects | time and dose-dependent relief | dose dependent effects | time dependent effects | provided relief in this assay that was comparable to that provided by knockout or knockdown of importin α3 | c-Fos nuclear localization ([2]; listed as Sulfamethizole): Significant reductions in c-Fos nuclear localization |
| COc1cc([S+](C)[O-])ccc1-c1nc2ncccc2[nH]1 (stereo not shown) [sulmazole, 2-(2-Methoxy-4-[methylsulfinyl]phenyl)-1H-imidazo(4,5-b)pyridine] | showed efficacy in the assay | neither drug had any further effect | significantly reduced c-Fos nuclear accumulation | significant effects | time and dose-dependent relief | dose dependent effects | time dependent effects | provided relief in this assay that was comparable to that provided by knockout or knockdown of importin α3 | c-Fos nuclear localization ([2]; listed as Sulmazole): Significant reductions in c-Fos nuclear localization |
| B1 |  |  |  |  |  |  |  |  | response to noxious heat (mice; wild type mice after intrathecal injection of AAV9 construct, vs control construct): reduced noxious heat responses |
| B2 |  |  |  |  |  |  |  |  | binding result [4]: binds |
